The values below come from patent US20260207522A1, “YEAST CELL WALL PARTICLE ENCAPSULATION OF BIODEGRADABLE PRO-PAYLOADS” (UNIVERSITY OF MASSACHUSETTS, priority 2018, published 2026).

A short description of data set [1]: loading into yeast cell wall particles. The class given is physicochemical. Here is the method:
To create encapsulated pro-payloads, water-insoluble pro-payloads are dissolved in a suitable solvent compatible with the glucan particles (e.g., dimethylsulfoxide, methanol, etc.). After loading the pro-payloads into glucan shells, the glucan particle pro-payload is processed to remove the solvent.
The pro-payload CS-AcA was dissolved in a suitable solvent and combined with extracted yeast cell wall particles to create encapsulated CS-AcA.
The pro-payload INH-LA was dissolved in a suitable solvent and combined with extracted yeast cell wall particles to create encapsulated INH-LA.

Data set [2] is described as follows: in vitro release assay of naproxen from YCWPs. The class given is physicochemical. Conditions: pH 7. As for the experimental part:
The pro-payload Nap-An was dissolved in a suitable solvent and combined with extracted yeast cell wall particles to create encapsulated Nap-An.

For data set [3], the system named is H. pylori. Conditions: concentration of 2 mg/L; cited from earlier work.
Data set [4] deals with S. cerevisiae. The following applies: Bard et al.; cited from earlier work.
In data set [5] the test system is C. albicans. The following applies: Bard et al.; cited from earlier work.

Regarding `N[C@@H]1CON=C1O` [CS, cycloserine], in data set [1], the “amount loaded into yeast cell wall particles” value was at most 14%.
Consider `NNC(=O)c1ccncc1` [INH, isoniazid], for which the “amount loaded into yeast cell wall particles” value in data set [1] is recorded as 0%.
With `CCCCCCCCCCCC(=O)NNC(=O)c1ccncc1` [INH-LA, isoniazid lauric acid], the “amount loaded into yeast cell wall particles” value in data set [1] is “up to 89%”.
Turning to `COc1ccc2cc(C(C)C(=O)OC(=O)C(C)c3ccc4cc(OC)ccc4c3)ccc2c1` (stereo not shown) [Nap-An, naproxen anhydride], in data set [2], the “50% release time (RT50)” value is reported as “greater than 13.5 hours”.
For the molecule `CC(C)=CCC/C(C)=C/CO` [geraniol], in data set [3], the “in vitro growth of H. pylori” value was “inhibited”. In addition, in data set [4], the “growth of S. cerevisiae strains” value is recorded as “inhibit the growth”. The “growth of C. albicans strains” value in data set [5] is recorded as “inhibit the growth”.
cycloserine acetylacetone [CS-AcA]: the “amount loaded into yeast cell wall particles” value in data set [1] was at most 70%.
On the same count and under the same terms, the value for doxorubicin-isoniazid [Dox-INH] was “up to 61%”; that for “doxorubicin-isophorone diisocyanate [Dox-IPDI]” was “up to 92%”.
